# Assays:
# ABC1 protein = experiment: Cell-surface labeling and immunoprecipitation of ABC1 protein in normal and TD1 fibroblasts; assay type: cell-based, human; details: serum deprivation and cholesterol-loading (30 μg/ml, 48 hours), normal and TD1 cells
# Method: Cell-surface labeling and immunoprecipitation was used to determine whether increased expression of ABC1 protein in the plasma membrane is correlated with an increase in cholesterol efflux (FIG. 10). The relative amount of ABC1 on the cell surface was determined by cross-linking surface proteins on intact cells with the membrane-impermeable agent sulfo-NHS-biotin, followed by the steps of membrane solubilization, immunoprecipitation with ABC1 antibody, SDS-PAGE, and detection with streptavidin.
# Both normal and TD1 cells were cultured under control conditions and conditions known to increase apolipoprotein-mediated cholesterol efflux (Oram, et al., J. Lip. Res., 40: 1769-1781 (1999)). […] Cholesterol-loaded cells were grown to confluence in DMEM/10% FBS and then incubated in DMEM/BSA for 48 hours with 30 μg/ml cholesterol plus 18 hours with no additives (cholesterol). […]
# Detection of ABC1 Protein: The eluted biotinylated proteins were subjected to SDS-PAGE (6% gel; 150V, 5 hours) and transferred to nitrocellulose membrane (200 mA, 18 hours). The nitrocellulose was probed with streptavidin-horse radish peroxidase (Amersham Pharmacia, Piscataway, N.J.; Cat. #RPN 1231) diluted 300-fold and detected by enhanced chemiluminescence labeling (ECL) according to vendor's protocol (Amersham Pharmacia, Piscataway, N.J.). […]
# ABC1 mRNA [1] = experiment: ABC1 mRNA expression by RT-PCR in normal fibroblasts; assay type: cell-based, human
# Method: (§1) To determine whether ABC1 plays a rate-limiting role in cellular sterol efflux, the synthesis of ABC1 was measured under various cellular conditions related to cholesterol efflux processes. Specifically, normal fibroblasts and TD fibroblasts were individually exposed to conditions of excess cAMP, cholesterol, or Apo A-I. Cell cultures of normal skin fibroblasts and TD1 and TD2 fibroblasts were prepared as described in Example 1. The level of ABC1 mRNA was measured by RT-PCR. Cell cultures: Immortalized cell cultures of normal skin fibroblasts and TD1 and TD2 fibroblasts were prepared as described in Example 1. Cells were grown to subconfluence in DMEM/10% FBS before replacement with DMEM/BSA and the indicated additive for 24 or 48 hours. RNA was prepared as described in Example 2. RT-PCR: Quantitative PCR was carried out using the GeneAmp 5700 Sequence Detection System (Perkin-Elmer Applied Biosystems, Foster City, Calif.). Briefly, 500 ng of DNase-treated mRNA was reverse transcribed using random hexamer primers at 2.5 μM. Approximately 5% of this reaction was amplified by PCR using the SYBR green core kit (PE Applied Biosystems, Foster City, Calif.; Cat. #4304886) and human ABC1 primers […] […] The mRNA in each sample was quantitated by detecting the increase in fluorescence caused by SYBR green binding to the double-stranded amplification product generated during each PCR cycle. […]
# RAW 264.7 cells [2] = experiment: Apo A-I-mediated cholesterol efflux assay in cholesterol-loaded RAW 264.7 macrophage cells; assay type: cell-based, mouse; details: apo A-I (20 μg/ml) and rolipram 50 μM
# RAW 264.7 cells [3] = experiment: as above; assay type: cell-based, mouse
# Method: To determine whether ligands for nuclear receptors affect the process of apolipoprotein-mediated cholesterol efflux, various ligands were tested using the apo A-I-mediated cholesterol efflux assay described in Example 12. The nuclear receptor superfamily includes several members, such as the liver receptor LXR, the retinoid receptor RXR, and the peroxisome proliferator-activated receptor PPAR, which have been implicated in lipid metabolism (Russell. D. W., Cell, 97:539-542 (1999); Spiegelman, B. W., Cell, 93:153-155 (1998); Janowski et al., Nature, 383:728-731 (1996)). […] Using the above-described assay, 9 cis-retinoic acid (RXR ligand), oxysterol (LXR ligand), and fenfibrate (PPAR ligand) was tested to determine the effect on cholesterol efflux.
# To determine whether eicosanoids affect the process of apolipoprotein-mediated cholesterol efflux, PGE1 and PG12 were tested using the apo A-I-mediated cholesterol efflux assay described in Example 12.
# normal fibroblasts [4] = experiment: Cholesterol efflux from cholesterol-laden normal fibroblasts; assay type: cell-based, human; details: albumin plus apo A-I 10 μg/ml; up to 48 hours
# Method: (§2) Cell Cultures: Human fibroblasts were obtained from skin explants from two normal subjects (NL1) and three unrelated patients with Tangier disease ([…]). TD1 cells were obtained from a person with extremely low plasma HDL cholesterol and apo A-I levels and clinical symptoms typical of Tangier disease. […] TD3 cells were obtained from a person with Tangier disease who presented with orange tonsil remnants, asymmetrical motor neuropathy, plasma HDL cholesterol of 5 mg/dL, and LDL cholesterol of 16 mg/dL (Lawn et at., J. Clin. Invest., 104, R25-R31 (1999)). The normal cells and TD subject cells were immortalized as described in Oram et al., J. Lipid Res., 40: 1769-1781 (1999). Briefly, the cells were transfected with amphotropic retroviruses containing vectors with inserts of human papillomavirus 16 oncogenes E6 and E7 and a neomycin resistance selectable marker. Control cells were infected with vector alone (mock-infected). Pooled cell populations were selected in the presence of G418 for two passages, after which G418 was excluded from the medium. Fibroblasts were used between the fifth and sixteenth passage (primary) or sixth and fourteenth passage (immortalized). The immortalized normal and TD cells were seeded into 16-mm wells or 35-mm dishes and grown to confluence in Dulbecco's modified Eagle's medium (DMEM) plus 10% fetal bovine serum (FBS) before experimental use. […]
# ABC1 mRNA [5] = experiment: ABC1 mRNA expression by RT-PCR in Tangier disease (TD1, TD2) fibroblasts; assay type: cell-based, human; details: 10 μg/ml apo A-I
# Method: as §1
# TD fibroblasts = experiment: Cholesterol efflux from cholesterol-laden Tangier disease fibroblasts; assay type: cell-based, human; details: albumin plus apo A-I 10 μg/ml
# Method: as §2
# ABC1 mRNA [6] = experiment: Apo A-I-mediated cholesterol efflux from normal skin fibroblasts loaded with antisense oligonucleotide; assay type: cell-based, human; details: 30 μM oligonucleotide; apo A-I-mediated efflux after 12 hours
# Method: Normal skin fibroblasts were labeled with [^3H]cholesterol as described in Example 1. The cells were then loaded with oligonucleotide by scraping in the presence of either 30 μM control Morpholino oligonucleotide (5′-[…]-3′ corresponding to the antisense complement of a β-globin thalassemic mRNA; SEQ ID NO: 52) or 30 μM ABC1 antisense Morpholino oligonucleotide (5′-[…]-3′; SEQ ID NO: 53) and reseeding on new dishes. Control cells were mock-loaded after [^3H]cholesterol-labeling by scraping and reseeding in the absence of oligonucleotide. […] The results are shown in FIG. 6 as the mean±SEM of three separate experiments, normalized to the value for apo A-I-specific efflux in the absence of oligonucleotide in each experiment.
# normal fibroblasts [7] = experiment: Apo A-I-mediated cholesterol efflux from normal fibroblasts in the presence of ABC1 transport inhibitors; assay type: cell-based, human; details: 6 hours; 5 μg/ml apo A-I; 0, 0.2 mM or 0.4 mM inhibitor
# Method: To test whether inhibition of ABC1 could affect the process of apolipoprotein-mediated cholesterol efflux, two compounds reported to be ABC1 inhibitors were tested in assays which monitor apolipoprotein mediated cholesterol efflux. […] The apolipoprotein-mediated cholesterol efflux assays were performed as described in Example 1 with the noted changes. Cholesterol-loaded and [^3H]cholesterol-labeled normal fibroblasts (n=3) were incubated for 6 hours with or without 5 μg/ml apo A-1 and either 0, 0.2 mM, or 0.4 mM DIDS. In addition, cholesterol-loaded and [^3H]cholesterol-labeled normal fibroblasts (n=3) were incubated for 6 hours with or without 5 μg/ml apo A-I and either 0, 0.2 mM, or 0.4 mM BSP. […] The results are shown in FIG. 5 as the mean±SD (n=3) of efflux in the presence of apo A-I after subtraction of values for apo A-I-free medium. […] The results of these tests mimic the efflux defect in fibroblasts derived from patients with TD, described in Example 1.
# ABC1 = ABC1 (Mus musculus, UniProt P41233); details: Becq et al. 1997; Hamon et al. 1997; cited from earlier work
# ABC1, sequence (P41233 whole entry): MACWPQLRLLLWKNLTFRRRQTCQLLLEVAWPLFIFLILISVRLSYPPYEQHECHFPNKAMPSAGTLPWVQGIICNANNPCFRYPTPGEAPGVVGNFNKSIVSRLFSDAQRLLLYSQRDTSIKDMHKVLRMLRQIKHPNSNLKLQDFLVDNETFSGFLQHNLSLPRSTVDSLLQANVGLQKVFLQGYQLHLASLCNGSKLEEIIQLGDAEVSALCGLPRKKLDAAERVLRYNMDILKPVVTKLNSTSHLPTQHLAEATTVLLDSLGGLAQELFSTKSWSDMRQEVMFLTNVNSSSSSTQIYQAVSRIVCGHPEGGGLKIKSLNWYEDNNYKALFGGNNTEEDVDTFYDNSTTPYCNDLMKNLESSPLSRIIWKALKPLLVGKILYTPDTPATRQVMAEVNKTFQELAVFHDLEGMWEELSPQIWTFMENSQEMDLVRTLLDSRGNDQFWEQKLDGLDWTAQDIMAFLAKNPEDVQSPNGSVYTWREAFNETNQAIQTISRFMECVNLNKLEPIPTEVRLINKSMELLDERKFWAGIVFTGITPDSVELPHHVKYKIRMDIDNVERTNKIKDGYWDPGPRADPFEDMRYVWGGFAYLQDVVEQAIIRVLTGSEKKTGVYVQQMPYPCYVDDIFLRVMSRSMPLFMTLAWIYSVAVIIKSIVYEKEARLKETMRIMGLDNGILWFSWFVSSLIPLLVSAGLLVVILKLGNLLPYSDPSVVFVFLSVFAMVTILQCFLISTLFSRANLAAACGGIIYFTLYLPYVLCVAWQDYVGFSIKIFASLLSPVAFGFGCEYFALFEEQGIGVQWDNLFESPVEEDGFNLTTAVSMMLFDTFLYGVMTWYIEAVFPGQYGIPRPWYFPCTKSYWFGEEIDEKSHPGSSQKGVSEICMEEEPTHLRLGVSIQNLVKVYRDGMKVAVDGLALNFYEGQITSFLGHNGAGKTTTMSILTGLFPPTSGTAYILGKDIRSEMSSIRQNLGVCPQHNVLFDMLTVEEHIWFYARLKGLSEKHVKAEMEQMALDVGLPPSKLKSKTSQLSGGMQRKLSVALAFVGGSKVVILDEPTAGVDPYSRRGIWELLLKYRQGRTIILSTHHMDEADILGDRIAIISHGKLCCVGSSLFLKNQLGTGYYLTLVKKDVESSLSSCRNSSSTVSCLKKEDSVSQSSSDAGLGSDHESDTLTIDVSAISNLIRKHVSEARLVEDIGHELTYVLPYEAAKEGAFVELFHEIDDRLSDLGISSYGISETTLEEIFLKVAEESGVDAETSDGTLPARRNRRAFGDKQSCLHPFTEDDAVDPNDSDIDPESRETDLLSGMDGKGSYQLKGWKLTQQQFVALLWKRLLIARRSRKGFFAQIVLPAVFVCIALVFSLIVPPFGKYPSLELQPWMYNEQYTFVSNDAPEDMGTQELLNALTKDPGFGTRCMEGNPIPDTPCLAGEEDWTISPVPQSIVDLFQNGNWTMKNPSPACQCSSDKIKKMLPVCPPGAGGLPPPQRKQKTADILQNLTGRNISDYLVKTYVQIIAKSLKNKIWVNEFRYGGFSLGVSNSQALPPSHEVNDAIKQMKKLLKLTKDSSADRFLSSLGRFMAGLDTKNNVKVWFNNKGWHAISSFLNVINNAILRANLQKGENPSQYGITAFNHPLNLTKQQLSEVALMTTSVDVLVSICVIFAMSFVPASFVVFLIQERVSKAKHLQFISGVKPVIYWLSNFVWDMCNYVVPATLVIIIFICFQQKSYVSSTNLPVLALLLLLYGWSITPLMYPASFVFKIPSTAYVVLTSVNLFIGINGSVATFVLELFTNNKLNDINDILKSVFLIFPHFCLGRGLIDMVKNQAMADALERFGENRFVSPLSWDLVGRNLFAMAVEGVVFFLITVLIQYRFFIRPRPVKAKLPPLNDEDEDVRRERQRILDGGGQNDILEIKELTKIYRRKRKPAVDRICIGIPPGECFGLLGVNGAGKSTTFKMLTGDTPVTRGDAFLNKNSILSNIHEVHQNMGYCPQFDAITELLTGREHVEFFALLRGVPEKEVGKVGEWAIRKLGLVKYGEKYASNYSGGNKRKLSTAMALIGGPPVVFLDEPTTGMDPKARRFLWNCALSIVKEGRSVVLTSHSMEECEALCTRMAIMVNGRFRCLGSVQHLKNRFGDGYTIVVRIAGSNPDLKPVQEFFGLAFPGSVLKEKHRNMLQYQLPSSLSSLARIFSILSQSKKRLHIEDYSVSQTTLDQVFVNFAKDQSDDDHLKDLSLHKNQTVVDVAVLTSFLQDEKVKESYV
molecule,measurement,setting,value
CC(C)CCC[C@@H](C)[C@H]1CC[C@H]2[C@@H]3CC=C4C[C@@H](O)CC[C@]4(C)[C@H]3CC[C@]12C [cholesterol],cell-surface expression of ABC1,ABC1 protein,markedly increased
same,increase in ABC1 mRNA,"ABC1 mRNA [1]; 30 μg/ml free cholesterol, 48 hours, serum-free medium, normal fibroblasts",approximately 17 fold
COc1ccc(C2CNC(=O)C2)cc1OC1CCCC1 (stereo not shown) [rolipram],cholesterol efflux (percentage of total radiolabeled cholesterol appearing in the medium),RAW 264.7 cells [2],17%
apo A-I: apolipoprotein cholesterol acceptor (Biodesign International),cholesterol efflux (percentage of total radiolabeled cholesterol appearing in the medium),"RAW 264.7 cells [3]; apo A-I only (20 μg/ml), control cells without apo A-I 3%",5%
same,cholesterol efflux counts,RAW 264.7 cells [3]; control cells (apo A-I only),1890 c.p.m.
same,efflux of [3H]-cholesterol,normal fibroblasts [4],promoted the efflux
same,change in ABC1 expression,ABC1 mRNA [5]; cholesterol-loaded TD1 cells,did not alter ABC1 expression
same,change in ABC1 expression,ABC1 mRNA [5]; cholesterol-loaded TD2 cells,slightly increased ABC1 expression
same,change in ABC1 mRNA expression,ABC1 mRNA [1]; cholesterol-loaded normal fibroblasts then 10 μg/ml apo A-I,marked decrease
same,efflux of [3H]-cholesterol,TD fibroblasts,little or no effect
ABC1 antisense Morpholino oligonucleotide: 5′-CATGTTGTTCATAGGGTGGGTAGCTC-3′; SEQ ID NO: 53 (all phosphorodiamidate morpholino (PMO)),reduction in cholesterol efflux compared with control (β-globin) antisense oligonucleotide,ABC1 mRNA [6],50%
"O=C1OC(c2ccc(O)c(S(=O)(=O)O)c2)(c2ccc(O)c(S(=O)(=O)O)c2)c2c(Br)c(Br)c(Br)c(Br)c21 [BSP, sulphobromophthaleine]",apo A-I-mediated efflux of tritiated cholesterol,normal fibroblasts [7],inhibited
same,anion transport activities of ABC1,ABC1,inhibit anion transport activities of ABC1 in a dose-dependent fashion
